Like-named read-outs stand apart in the source and are kept apart here. Square brackets hold non-standard residues; d marks the D form. Ends that are not written are not given here. Peptide text beside a SMILES is read from it.

In patent EP1388586A2, “Identification of broadly reactive DR restricted epitopes” (priority 1998, dated 1999) one finds IC50 data, which are given here for 10 compounds.

For one assay, the target named is T1, DRB1*0101 (DR1) (Homo sapiens, UniProt P01903+P01911, A100R/D57E/F55L/F60I/F76Y/I96L/L162R/M171V/P40L/Q125E/R42F/V115G/Y59C).
T1 construct: used as sources of human HLA class II molecules; endogenous in cells; host or cells: LG2 (EBV-transformed homozygous B cell line)
Nature of the assay: Class II peptide-binding assay, DR1.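 Note: competition assay: unlabeled test peptides inhibit binding of a radiolabeled probe peptide to purified DR, with half-maximal inhibition taken as an approximate dissociation constant Kd.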

The next assay concerns the target T2, DRB5*0101 (DR2w2a) (Homo sapiens, UniProt P01903+Q30154).
T2 construct: used as sources of human HLA class II molecules; endogenous in cells; host or cells: GM3107 (EBV-transformed homozygous B cell line)
Nature of the assay: Class II peptide-binding assay, DR2w2a (DR2w2B2).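 Note: competitive binding assay: unlabeled peptide inhibiting binding of a radiolabeled probe peptide to purified DR molecules at pH 7.0, IC50 approximating Kd, lower means stronger binding.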

The target of another assay is T3, DRB1*0401 (DR4w4) (Homo sapiens, UniProt P01903+P01911, A100K/A169T/F76Y/I96L/K127E/L162R/M171V/N62H/P40V/Q125Y/R42H/S133A/S149N/S66Y/V115G/V209L/W38E).
T3 construct: used as sources of human HLA class II molecules; endogenous in cells; host or cells: PREISS (EBV-transformed homozygous B cell line)
Nature of the assay: Class II peptide-binding assay, DR4w4.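 Note: unlabeled test peptides compete with a radiolabeled probe peptide for binding to affinity-purified HLA-DR, with DR amount titrated to capture a small fraction of label, IC50 approximating Kd.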

The target of the next assay is T4, DRB10404 (DR4w14) (Homo sapiens, UniProt P01903+P01911, A100R/A169T/F76Y/I96L/K127E/L162R/M171V/N62H/P40V/Q125Y/R42H/S133A/S149N/S66Y/V209L/W38E).
T4 construct: used as sources of human HLA class II molecules; endogenous in cells; host or cells: BIN40 (EBV-transformed homozygous B cell line)
Nature of the assay: Class II peptide-binding assay, DR4w14.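 Note: unlabeled peptides compete with a radiolabeled probe for binding to affinity-purified HLA-DR, neutral pH, class II amount titrated to bind a small fraction of label, IC50 approximates Kd.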

The target in the next assay is T5, DRB1*1101 (DR5w11) (Homo sapiens, UniProt P01903+P01911, A100R/A169T/A87E/I96F/K41T/L162R/M171V/P40S/Q125H/Q178H/Q39Y/Q99D/R42S/S66Y/T262R/V115G/W38E).
T5 construct: used as sources of human HLA class II molecules; endogenous in cells; host or cells: SWEIG (EBV-transformed homozygous B cell line)
As to the kind of experiment: Class II peptide-binding assay, DR5w11.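 Note: competition by unlabeled test peptide against iodinated probe peptide binding to affinity-purified HLA-DR, class II amount titrated beforehand, half-maximal inhibitory concentration read as approximate Kd.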

Another assay addresses DRB1*0701 (DR7) (Homo sapiens, UniProt P01903+P01911, A100R/A102G/A103Q/D57E/D86V/E43K/F76Y/K127E/L162R/M171V/P40G/Q125H/Q99D/R33Q/R42Y/R54Q/S133A/S66F/T210M/V115G/Y107V/Y59L/Y89S). Nature of the assay: Class II peptide-binding assay, DR7.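 Note: unlabeled peptides compete with an iodinated probe peptide for binding to affinity-purified HLA-DR at neutral pH, DR amount titered to bind a small tracer fraction, IC50 approximating Kd.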
Where [1] appears, read: read-out: DR1 nM (In IC50 Format), purified HLA DR1.
Setting [2] is: read-out: DR2w2B2 nM (In IC50 Format), purified HLA DR2w2β2.
[3] abbreviates: read-out: DR4w4 nM (In IC50 Format), purified HLA DR4w4.
Setting [4] is: read-out: DR4w14 nM (In IC50 Format), purified HLA DR4w14.
Setting [5] is: read-out: DR5w11 nM (In IC50 Format), purified HLA DR5w11.
Setting [6] is: read-out: DR7 nM (In IC50 Format), purified HLA DR7.

T5 sequence (P01903 26-254, other chains not shown): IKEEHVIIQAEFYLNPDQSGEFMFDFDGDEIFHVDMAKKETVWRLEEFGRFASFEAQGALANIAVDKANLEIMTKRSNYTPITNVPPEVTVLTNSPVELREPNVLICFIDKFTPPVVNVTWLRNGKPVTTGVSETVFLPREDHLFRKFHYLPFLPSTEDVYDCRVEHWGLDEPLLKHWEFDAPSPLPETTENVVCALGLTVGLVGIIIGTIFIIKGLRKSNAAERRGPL
Protocol for DRB5*0101 (DR2w2a): Class II peptide-binding assays. […] These assays were chosen as to be representative of the most common DR alleles.
Radiolabeled peptides were iodinated using the chloramine-T method. […] In appropriate stoichiometric conditions, the IC50 of an unlabeled test peptide to the purified DR is a reasonable approximation of the affinity of interaction (Kd). Peptides were tested in two to four completely independent experiments. […] Final detergent concentration in the incubation mixture was 0.05% Nonidet P-40. Assays were performed at pH 7.0 with the exception of DR3, which was performed at pH 4.5, and DRw53, which was performed at pH 5.0.
All subsequent inhibition and direct binding assays were the performed using these class II concentrations.

YARFQSQTTLKSKT-NH2 [Peptide 717.23]: the IC50 at DRB1*0101 (DR1) (setting [1]) turned out to be 294 nM; at DRB5*0101 (DR2w2a) (setting [2]), 215 nM; at DRB1*0401 (DR4w4) (setting [3]), 2.8 nM; on DRB10404 (DR4w14) (setting [4]), 21.7 nM; at DRB1*1101 (DR5w11) (setting [5]), 25.3 nM; at DRB1*0701 (DR7) (setting [6]), 8330 nM.
In the case of `CC[C@H](C)[C@H](NC(=O)[C@H](C)NC(=O)CNC(=O)[C@H](Cc1ccccc1)NC(=O)[C@H](CC(N)=O)NC(=O)[C@H](CC(N)=O)NC(=O)[C@H](N)CO)C(=O)N[C@@H](CC(C)C)C(=O)N[C@@H](CO)C(=O)N[C@@H](CO)C(=O)N[C@H](C(=O)N[C@@H](CC(N)=O)C(=O)N[C@H](C(=O)NCC(N)=O)C(C)C)[C@@H](C)O` [Peptide 735.05] (H-[dS]NNFGAILSSTNVG-NH2), the IC50 on DRB1*0101 (DR1) (setting [1]) is 48.5 nM; on DRB5*0101 (DR2w2a) (setting [2]), 2860 nM; on DRB1*0401 (DR4w4) (setting [3]), 273 nM; at DRB10404 (DR4w14) (setting [4]), 376 nM; on DRB1*1101 (DR5w11) (setting [5]) it was 20000 nM; at DRB1*0701 (DR7) (setting [6]), 12500 nM.
Take ARRLKAIYARRLK [Peptide 640.04]: the IC50 at DRB1*0101 (DR1) (read-out: In IC50 Format DR1, Table VIII) was 3.6 nM; at DRB5*0101 (DR2w2a) (read-out: In IC50 Format DR2w2β2, Table VIII), 8.7 nM; on DRB1*0401 (DR4w4) (read-out: In IC50 Format DR4w4, Table VIII), above 22500 nM; at DRB10404 (DR4w14) (read-out: In IC50 Format DR4w14, Table VIII), 667 nM; at DRB1*1101 (DR5w11) (read-out: In IC50 Format DR5w11, Table VIII), 667 nM; at DRB1*0701 (DR7) (read-out: In IC50 Format DR7, Table VIII) it was 29.2 nM.
Take `CC(C)C[C@H](NC(=O)[C@H](CCCCN)NC(=O)[C@H](CC(C)C)NC(=O)[C@@H](NC(=O)[C@H](CC(N)=O)NC(=O)[C@H](CCC(N)=O)NC(=O)[C@H](CCCCN)NC(=O)[C@@H](NC(=O)[C@H](Cc1ccc(O)cc1)NC(=O)[C@H](CCCCN)NC(=O)[C@@H]1CCCN1C(=O)[C@@H](N)CS)C(C)C)[C@@H](C)O)C(=O)N[C@@H](C)C(=O)N[C@H](C(=O)NCC(=O)O)[C@@H](C)O` [Peptide 852.01]: the IC50 at DRB1*0101 (DR1) (read-out: DR1 nM, Table VIII, In IC50 Format) amounted to 31.6 nM; at DRB5*0101 (DR2w2a) (read-out: DR2w2B2 nM, Table VIII, In IC50 Format), 2.9 nM; at DRB1*0401 (DR4w4) (read-out: DR4w4 nM, Table VIII, In IC50 Format), 30 nM; at DRB10404 (DR4w14) (read-out: DR4w14 nM, Table VIII, In IC50 Format), 7140 nM; at DRB1*1101 (DR5w11) (read-out: DR5w11 nM, Table VIII, In IC50 Format) it was 39.2 nM; at DRB1*0701 (DR7) (read-out: DR7 nM, Table VIII, In IC50 Format), 65.8 nM.
Regarding YIAFLKQATAKLAT [Peptide 723.01], the IC50 on DRB1*0101 (DR1) (setting [1]) was 4.9 nM; at DRB5*0101 (DR2w2a) (setting [2]), 69 nM; on DRB1*0401 (DR4w4) (setting [3]), 16.7 nM; on DRB10404 (DR4w14) (setting [4]) it was 746 nM; at DRB1*1101 (DR5w11) (setting [5]) it was 30.5 nM; at DRB1*0701 (DR7) (setting [6]), 15.6 nM.
YARFQSQTTKKAKT-NH2 [Peptide 717.20]: the IC50 on DRB1*0101 (DR1) (setting [1]) came out at 11.1 nM; at DRB5*0101 (DR2w2a) (setting [2]), 87 nM; at DRB1*0401 (DR4w4) (setting [3]), 12.5 nM; at DRB10404 (DR4w14) (setting [4]) it was 200 nM; on DRB1*1101 (DR5w11) (setting [5]), 339 nM; at DRB1*0701 (DR7) (setting [6]), 5000 nM.
As for YERFQSQTTLKAKT-NH2 [Peptide 717.39], the IC50 on DRB1*0101 (DR1) (setting [1]) stood at 18.5 nM; on DRB5*0101 (DR2w2a) (setting [2]), 800 nM; at DRB1*0401 (DR4w4) (setting [3]), 10.7 nM; at DRB10404 (DR4w14) (setting [4]) it was 16.7 nM; on DRB1*1101 (DR5w11) (setting [5]), 47.6 nM; on DRB1*0701 (DR7) (setting [6]) it was 8330 nM.
Regarding YARFQSQTTLKART-NH2 [Peptide 717.25], the IC50 was found to be 4.5 nM on DRB1*0101 (DR1) (setting [1]); 64.5 nM at DRB5*0101 (DR2w2a) (setting [2]); 1.2 nM on DRB1*0401 (DR4w4) (setting [3]); 10.6 nM on DRB10404 (DR4w14) (setting [4]); 13.3 nM at DRB1*1101 (DR5w11) (setting [5]); 4170 nM on DRB1*0701 (DR7) (setting [6]).
For YARFQSQATLKAKT-NH2 [Peptide 717.53], the IC50 at DRB1*0101 (DR1) (setting [1]) turned out to be 2 nM; on DRB5*0101 (DR2w2a) (setting [2]) it was 167 nM; at DRB1*0401 (DR4w4) (setting [3]) it was 9.2 nM; on DRB10404 (DR4w14) (setting [4]), 10.6 nM; at DRB1*1101 (DR5w11) (setting [5]), 20 nM; on DRB1*0701 (DR7) (setting [6]) it was 3570 nM.
Take YARFNSQTTLKAKT-NH2 [Peptide 717.44]: the IC50 at DRB1*0101 (DR1) (setting [1]) was determined as 5 nM; on DRB5*0101 (DR2w2a) (setting [2]) it was 80 nM; at DRB1*0401 (DR4w4) (setting [3]), 4.2 nM; on DRB10404 (DR4w14) (setting [4]), 7.4 nM; at DRB1*1101 (DR5w11) (setting [5]), 32.8 nM; on DRB1*0701 (DR7) (setting [6]), 5000 nM.
